Measured values published in PubChem BioAssay AID743310 (Sanford-Burnham Center for Chemical Genomics, 2014).
The source made the active and inactive calls.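 Rule for the calls: active = IC50 at or below 20 µM; inactive = the rest.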

Molecular target: Dual specificity protein phosphatase 3 (Homo sapiens) (UniProt P51452)
Test: DUSP3 enzyme activity inhibitors – biochemical, fluorescence, OMFP substrate, selectivity assay for LMPTP inhibitor project, SAR follow-up (AID 743310)
Settings: recombinant VHR, OMFP fluorogenic substrate, 50 min

Chain of Dual specificity protein phosphatase 3 (Homo sapiens) (P51452 whole entry, looked up): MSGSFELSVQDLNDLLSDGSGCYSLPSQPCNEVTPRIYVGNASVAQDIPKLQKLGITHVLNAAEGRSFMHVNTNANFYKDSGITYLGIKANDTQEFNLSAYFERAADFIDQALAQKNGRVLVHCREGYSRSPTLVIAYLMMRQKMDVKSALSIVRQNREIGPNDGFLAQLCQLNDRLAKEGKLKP

SMILES	IC50
Nc1nc(N)c(Cc2ccc(Cl)cc2Cl)c(N)n1	> 80 µM (inactive)
c1ccc(-c2cc(SCCCN3CCCCC3)c3ccccc3n2)cc1	> 80 µM (inactive)
c1ccc(-c2nc(NCc3cccnc3)c3ccccc3n2)cc1	> 80 µM (inactive)
c1ccc(-c2cc(OCCCN3CCCCC3)c3ccccc3n2)cc1	> 80 µM (inactive)
CC1CCN(c2nc(-c3ccccc3)nc3ccccc23)CC1	> 80 µM (inactive)
CC(C)OCCCNc1nc(-c2ccccc2)nc2ccccc12	> 80 µM (inactive)
c1ccc(-c2cc(NCCCN3CCOCC3)c3ccccc3n2)cc1	> 80 µM (inactive)
COc1cc2nc(-c3ccccc3)cc(NCCCN3CCCCC3)c2cc1OC	> 80 µM (inactive)
c1ccc(-c2nc(NCCCN3CCCCC3)c3ccccc3n2)cc1	> 80 µM (inactive)
Clc1ccccc1-c1cc(NCCCN2CCCCC2)c2ccccc2n1	> 80 µM (inactive)
CN1CCN(c2nc(-c3ccccc3)nc3ccccc23)CC1	> 80 µM (inactive)
c1ccc(-c2nc(N3CCCCCC3)c3ccccc3n2)cc1	> 80 µM (inactive)
COc1cccc(-c2cc(NCCCN3CCCCC3)c3ccccc3n2)c1	> 80 µM (inactive)
c1ccc(-c2nc(NCCCn3ccnc3)c3ccccc3n2)cc1	> 80 µM (inactive)
CC(C)CNc1nc(-c2ccccc2)nc2ccccc12	> 80 µM (inactive)
c1ccc(-c2cc(NCCCN3CCCCC3)c3ccccc3n2)cc1	> 80 µM (inactive)

SMILES	IC50
c1ccc(-c2nc(NCCN3CCCC3)c3ccccc3n2)cc1	> 80 µM (inactive)
c1ccc(-c2nc(NC3CC3)c3ccccc3n2)cc1	> 80 µM (inactive)
CCN(CC)c1nc(-c2ccccc2)nc2ccccc12	> 80 µM (inactive)
CN(C)CCNc1cc(-c2ccccc2)nc2ccccc12	> 80 µM (inactive)
c1ccc(-c2nc(N3CCSCC3)c3ccccc3n2)cc1	> 80 µM (inactive)
Brc1ccc2nc(-c3ccccc3)cc(NCCCN3CCCCC3)c2c1	> 80 µM (inactive)
Cc1ccc(-c2nc(NCCN3CCOCC3)c3ccccc3n2)cc1	> 80 µM (inactive)
FC(F)(F)c1cccc(-c2cc(NCCCN3CCCCC3)c3ccccc3n2)c1	> 80 µM (inactive)
Clc1cccc(-c2cc(NCCCN3CCCCC3)c3ccccc3n2)c1	> 80 µM (inactive)
c1ccc(-c2nc(NCCCN3CCOCC3)c3ccccc3n2)cc1	> 80 µM (inactive)
Cc1ccc(-c2nc(NCc3cccnc3)c3ccccc3n2)cc1	> 80 µM (inactive)
Clc1ccc(-c2cc(NCCCN3CCCCC3)c3ccccc3n2)cc1	> 80 µM (inactive)
c1ccc2c(NCCCN3CCCCC3)cc(-c3ccncc3)nc2c1	> 80 µM (inactive)
c1ccc(-c2nc(N3CCCCC3)c3ccccc3n2)cc1	> 80 µM (inactive)
c1ccc(-c2cc(NCCN3CCCC3)c3ccccc3n2)cc1	> 80 µM (inactive)
c1ccc(-c2nc(NCCN3CCCCC3)c3ccccc3n2)cc1	> 80 µM (inactive)

Next, values leading:

IC50	SMILES
> 80 µM (inactive)	CCCCNc1nc(-c2ccccc2)nc2ccccc12
> 80 µM (inactive)	CC(C)Nc1nc(-c2ccccc2)nc2ccccc12
> 80 µM (inactive)	CCc1nc(N)nc(N)c1-c1ccc(Cl)cc1
5.21 µM	Cc1c(CCC(=O)O)c(=O)oc2c(C)c(OCc3ccccc3Cl)ccc12
> 80 µM (inactive)	Fc1ccccc1-c1nc(NCCCN2CCOCC2)c2ccccc2n1
> 80 µM (inactive)	O=C(OCCNc1nc(-c2ccccc2)nc2ccccc12)c1ccncc1
> 80 µM (inactive)	COc1ccccc1-c1cc(NCCCN2CCCCC2)c2ccccc2n1
> 80 µM (inactive)	CN(C)CCNc1nc(-c2ccccc2)nc2ccccc12
> 80 µM (inactive)	Cc1ccc(-c2cc(NCCCN3CCCCC3)c3ccccc3n2)cc1
> 80 µM (inactive)	c1ccc(-c2cc(NCCN3CCOCC3)c3ccccc3n2)cc1
> 80 µM (inactive)	O=C(OCCNc1nc(-c2ccccc2)nc2ccccc12)c1cccnc1
> 80 µM (inactive)	c1ccc(-c2nc(NCCN3CCOCC3)c3ccccc3n2)cc1
> 80 µM (inactive)	Fc1ccc(-c2cc(NCCCN3CCCCC3)c3ccccc3n2)cc1
> 80 µM (inactive)	Fc1ccccc1-c1nc(NC2CCCC2)c2ccccc2n1
> 80 µM (inactive)	Cc1ccc2nc(-c3ccccc3)cc(NCCCN3CCCCC3)c2c1
> 80 µM (inactive)	COc1ccccc1CNc1ncnc2ccsc12
> 80 µM (inactive)	c1ccc(-c2nc(N3CCCC3)c3ccccc3n2)cc1
> 80 µM (inactive)	Cc1cccc(-c2nc(NCCCN3CCOCC3)c3ccccc3n2)c1
> 80 µM (inactive)	c1ccc(-c2cc(NCCN3CCCCC3)c3ccccc3n2)cc1
> 80 µM (inactive)	COc1ccc(-c2cc(NCCCN3CCCCC3)c3ccccc3n2)cc1
> 80 µM (inactive)	Clc1cccc(Cl)c1Cn1cnc(=NCc2ccco2)c2[nH]cnc21
> 80 µM (inactive)	c1ccc(-c2cc(N3CCCCC3)c3ccccc3n2)cc1
> 80 µM (inactive)	c1ccc(-c2nc(NC3CCCC3)c3ccccc3n2)cc1
> 80 µM (inactive)	c1ccc(-c2nc(N3CCOCC3)c3ccccc3n2)cc1
> 80 µM (inactive)	Fc1ccc2nc(-c3ccccc3)cc(NCCCN3CCCCC3)c2c1
> 80 µM (inactive)	c1ccc(-c2nc(NC3CCCCC3)c3ccccc3n2)cc1
> 80 µM (inactive)	Fc1cccc(-c2cc(NCCCN3CCCCC3)c3ccccc3n2)c1
